Measured values: patent US6503881B2 (priority 1996, dated 2003)
Like-named read-outs stand apart in the source and are kept apart here.

System: bacterial isolates
Details: for PIC: with Gentamicin

Substance: W R I W K P K W R L P K W [MBI 11D18CN]
- Gentamicin MIC + Peptide (A. baumannii ABI001): 16 µg/mL
- Peptide MIC + Gentamicin (A. baumannii ABI001): 0.5 µg/mL
- Peptide MIC + Tobramycin (A. baumannii ABI001): 4 µg/mL
- Peptide MIC Alone (A. baumannii ABI001): 64 µg/mL
- Tobramycin MIC + Peptide (A. baumannii ABI001): 4 µg/mL
- Gentamicin MIC + Peptide (A. baumannii ABI002): 8 µg/mL
- Peptide MIC + Gentamicin (A. baumannii ABI002): 2 µg/mL
- Peptide MIC + Tobramycin (A. baumannii ABI002): 0.5 µg/mL
- Peptide MIC Alone (A. baumannii ABI002): 16 µg/mL
- Tobramycin MIC + Peptide (A. baumannii ABI002): 4 µg/mL
- Peptide MIC + Piperacillin (A. calcoaceticus 3): 8 µg/mL
- Peptide MIC Alone (A. calcoaceticus 3): 32 µg/mL
- Piperacillin MIC + Peptide (A. calcoaceticus 3): 8 µg/mL
- Peptide MIC + Piperacillin (E. cloacae 9): 16 µg/mL
- Peptide MIC Alone (E. cloacae 9): 64 µg/mL
- Piperacillin MIC + Peptide (E. cloacae 9): 16 µg/mL
- Peptide MIC + Piperacillin (E. cloacae 10): 8 µg/mL
- Peptide MIC Alone (E. cloacae 10): 32 µg/mL
- Piperacillin MIC + Peptide (E. cloacae 10): 64 µg/mL
- Gentamicin MIC + Peptide (E. coli ECO006): 16 µg/mL
- Peptide MIC + Gentamicin (E. coli ECO006): 0.125 µg/mL
- Mupirocin MIC + Peptide (E. coli SBECO1): 30 µg/mL
- Peptide MIC + Mupirocin (E. coli SBECO1): 0.125 µg/mL
- Peptide MIC Alone (E. coli SBECO1 (Mupirocin section)): 2 µg/mL
- Mupirocin MIC + Peptide (E. coli SBECO2): 30 µg/mL
- Peptide MIC + Mupirocin (E. coli SBECO2): 0.5 µg/mL
- Peptide MIC Alone (E. coli SBECO2 (Mupirocin section)): 16 µg/mL
- Peptide MIC + Vancomycin (E. faecalis EFS001): 2 µg/mL
- Peptide MIC Alone (E. faecalis EFS001): 8 µg/mL
- Vancomycin MIC + Peptide (E. faecalis EFS001): 0.125 µg/mL
- Peptide MIC + Vancomycin (E. faecalis EFS004): 2 µg/mL
- Peptide MIC Alone (E. faecalis EFS004): 8 µg/mL
- Vancomycin MIC + Peptide (E. faecalis EFS004): 0.5 µg/mL
- Gentamicin MIC + Peptide (E. faecalis EFS008): 8 µg/mL
- Peptide MIC + Gentamicin (E. faecalis EFS008): 0.125 µg/mL
- Peptide MIC + Vancomycin (E. faecalis EFS011): 0.125 µg/mL
- Peptide MIC Alone (E. faecalis EFS011): 64 µg/mL
- Vancomycin MIC + Peptide (E. faecalis EFS011): 32 µg/mL
- Peptide MIC + Vancomycin (E. faecalis EFS012): 2 µg/mL
- Peptide MIC Alone (E. faecalis EFS012): 16 µg/mL
- Vancomycin MIC + Peptide (E. faecalis EFS012): 64 µg/mL
- Peptide MIC + Vancomycin (E. faecalis EFS014): 0.5 µg/mL
- Peptide MIC Alone (E. faecalis EFS014): 4 µg/mL
- Vancomycin MIC + Peptide (E. faecalis EFS014): 4 µg/mL
- Gentamicin MIC + Peptide (E. faecium EFM004): 8 µg/mL
- Peptide MIC + Gentamicin (E. faecium EFM004): 0.125 µg/mL
- Peptide MIC + Vancomycin (E. faecium EFM004): 2 µg/mL
- Peptide MIC Alone (E. faecium EFM004): 8 µg/mL
- Vancomycin MIC + Peptide (E. faecium EFM004): 64 µg/mL
- Peptide MIC + Vancomycin (E. faecium EFM009): 0.125 µg/mL
- Peptide MIC Alone (E. faecium EFM009): 8 µg/mL
- Vancomycin MIC + Peptide (E. faecium EFM009): 32 µg/mL
- Peptide MIC + Vancomycin (E. faecium EFM010): 0.25 µg/mL
- Peptide MIC Alone (E. faecium EFM010): 8 µg/mL
- Vancomycin MIC + Peptide (E. faecium EFM010): 64 µg/mL
- Peptide MIC + Vancomycin (E. faecium EFM011): 2 µg/mL
- Peptide MIC Alone (E. faecium EFM011): 8 µg/mL
- Vancomycin MIC + Peptide (E. faecium EFM011): 64 µg/mL
- Peptide MIC + Piperacillin (H. influenzae 3): 8 µg/mL
- Peptide MIC Alone (H. influenzae 3): >128 µg/mL
- Piperacillin MIC + Peptide (H. influenzae 3): 0.25 µg/mL
- Peptide MIC + Piperacillin (H. influenzae SB1): 4 µg/mL
- Peptide MIC Alone (H. influenzae SB1): >128 µg/mL
- Piperacillin MIC + Peptide (H. influenzae SB1): 0.25 µg/mL
- Gentamicin MIC + Peptide (K. pneumonia KP020): 32 µg/mL
- Peptide MIC + Gentamicin (K. pneumonia KP020): 0.125 µg/mL
- Peptide MIC Alone (K. pneumonia KP020 (Gentamicin section)): 32 µg/mL
- Peptide MIC + Piperacillin (P. aeruginosa 23): 8 µg/mL
- Peptide MIC Alone (P. aeruginosa 23): 64 µg/mL
- Piperacillin MIC + Peptide (P. aeruginosa 23): 32 µg/mL
- Peptide MIC + Piperacillin (P. aeruginosa 41): 16 µg/mL
- Peptide MIC Alone (P. aeruginosa 41): >128 µg/mL
- Piperacillin MIC + Peptide (P. aeruginosa 41): 32 µg/mL
- Mupirocin MIC + Peptide (P. aeruginosa PA4): 30 µg/mL
- Peptide MIC + Mupirocin (P. aeruginosa PA4): 64 µg/mL
- Peptide MIC Alone (P. aeruginosa PA4 (Mupirocin section)): 128 µg/mL
- Gentamicin MIC + Peptide (P. aeruginosa PA022): 8 µg/mL
- Peptide MIC + Gentamicin (P. aeruginosa PA022): 0.125 µg/mL
- Peptide MIC Alone (P. aeruginosa PA022 (Gentamicin section)): 8 µg/mL
- Ciprofloxacin MIC + Peptide (P. aeruginosa PA24): 4 µg/mL
- Peptide MI + Ciprofloxacin (P. aeruginosa PA24): 16 µg/mL
- Peptide MI Alone (P. aeruginosa PA24 (Ciprofloxacin section)): >128 µg/mL
- Gentamicin MIC + Peptide (P. aeruginosa PA041): 0.125 µg/mL
- Peptide MIC + Gentamicin (P. aeruginosa PA041): 8 µg/mL
- Peptide MIC Alone (P. aeruginosa PA041 (Gentamicin section)): 64 µg/mL
- Ciprofloxacin MIC + Peptide (P. aeruginosa PA77): 0.5 µg/mL
- Peptide MI + Ciprofloxacin (P. aeruginosa PA77): 32 µg/mL
- Peptide MI Alone (P. aeruginosa PA77 (Ciprofloxacin section)): 128 µg/mL
- Mupirocin MIC + Peptide (P. aeruginosa SBPA1): 100 µg/mL
- Peptide MIC + Mupirocin (P. aeruginosa SBPA1): 32 µg/mL
- Peptide MIC Alone (P. aeruginosa SBPA1 (Mupirocin section)): 128 µg/mL
- FIC (Piperacillin + peptide, A. calcoaceticus 3): 0.38
- FIC (Piperacillin + peptide, E. cloacae 9): 0.31
- FIC (Piperacillin + peptide, E. cloacae 10): 0.50
- FIC (Piperacillin + peptide, H. influenzae 3): 0.53
- FIC (Piperacillin + peptide, H. influenzae SB1): 0.52
- FIC (Piperacillin + peptide, P. aeruginosa 23): 0.38
- FIC (Piperacillin + peptide, P. aeruginosa 41): 0.56
- FIC (Piperacillin + peptide, S. aureus 19 MRSA): 0.38
- FIC (Piperacillin + peptide, S. aureus SB2MRSA): 0.50
- FIC (Piperacillin + peptide, S. maltophilia 2): 0.50
- FIC (Piperacillin + peptide, S. marcescens 1): 0.14
- Peptide MIC + Piperacillin (S. aureus 19 MRSA): 1 µg/mL
- Peptide MIC Alone (S. aureus 19 MRSA): 4 µg/mL
- Piperacillin MIC + Peptide (S. aureus 19 MRSA): 16 µg/mL
- Gentamicin MIC + Peptide (S. aureus SA014 MRSA): 2 µg/mL
- Peptide MIC + Gentamicin (S. aureus SA014 MRSA): 0.125 µg/mL
- Peptide MIC Alone (S. aureus SA014 MRSA (Gentamicin section)): 2 µg/mL
- Peptide MIC + Tobramycin (S. aureus SA018 MRSA): 16 µg/mL
- Peptide MIC Alone (S. aureus SA018 MRSA): 32 µg/mL
- Tobramycin MIC + Peptide (S. aureus SA018 MRSA): 4 µg/mL
- Gentamicin MIC + Peptide (S. aureus SA025 MRSA): 1 µg/mL
- Peptide MIC + Gentamicin (S. aureus SA025 MRSA): 0.125 µg/mL
- Peptide MIC Alone (S. aureus SA025 MRSA (Gentamicin section)): 1 µg/mL
- Peptide MIC + Piperacillin (S. aureus SB2MRSA): 0.5 µg/mL
- Peptide MIC Alone (S. aureus SB2MRSA): 2 µg/mL
- Piperacillin MIC + Peptide (S. aureus SB2MRSA): 32 µg/mL
- Gentamicin MIC + Peptide (S. epidermidis SE071): 4 µg/mL
- Peptide MIC + Gentamicin (S. epidermidis SE071): 0.125 µg/mL
- Peptide MIC Alone (S. epidermidis SE071 (Gentamicin section)): 8 µg/mL
- Gentamicin MIC + Peptide (S. epidermidis SE074): 4 µg/mL
- Peptide MIC + Gentamicin (S. epidermidis SE074): 0.125 µg/mL
- Peptide MIC Alone (S. epidermidis SE074 (Gentamicin section)): 4 µg/mL
- Peptide MIC + Tobramycin (S. haemolyticus SHA001): 1 µg/mL
- Peptide MIC Alone (S. haemolyticus SHA001): 2 µg/mL
- Tobramycin MIC + Peptide (S. haemolyticus SHA001): 0.125 µg/mL
- Peptide MIC + Piperacillin (S. maltophilia 2): 8 µg/mL
- Peptide MIC Alone (S. maltophilia 2): 32 µg/mL
- Piperacillin MIC + Peptide (S. maltophilia 2): 16 µg/mL
- Gentamicin MIC + Peptide (S. maltophilia SMA016): 16 µg/mL
- Peptide MIC + Gentamicin (S. maltophilia SMA016): 16 µg/mL
- Peptide MIC Alone (S. maltophilia SMA016 (Gentamicin section)): 64 µg/mL
- Gentamicin MIC + Peptide (S. maltophilia SMA019): 4 µg/mL
- Peptide MIC + Gentamicin (S. maltophilia SMA019): 0.5 µg/mL
- Peptide MIC Alone (S. maltophilia SMA019 (Gentamicin section)): 8 µg/mL
- Peptide MIC + Tobramycin (S. maltophilia SMA027): 16 µg/mL
- Peptide MIC Alone (S. maltophilia SMA027): >128 µg/mL
- Tobramycin MIC + Peptide (S. maltophilia SMA027): 4 µg/mL
- Peptide MIC + Tobramycin (S. maltophilia SMA029): 4 µg/mL
- Peptide MIC Alone (S. maltophilia SMA029): 32 µg/mL
- Tobramycin MIC + Peptide (S. maltophilia SMA029): 4 µg/mL
- Peptide MIC + Piperacillin (S. marcescens 1): 4 µg/mL
- Peptide MIC Alone (S. marcescens 1): >128 µg/mL
- Piperacillin MIC + Peptide (S. marcescens 1): 8 µg/mL
- Mupirocin MIC + Peptide (S. marcescens SBSM1): 100 µg/mL
- Peptide MIC + Mupirocin (S. marcescens SBSM1): 16 µg/mL
- Peptide MIC Alone (S. marcescens SBSM1 (Mupirocin section)): >128 µg/mL
- Mupirocin MIC + Peptide (S. marcescens SBSM2): 100 µg/mL
- Peptide MIC + Mupirocin (S. marcescens SBSM2): 64 µg/mL
- Peptide MIC Alone (S. marcescens SBSM2 (Mupirocin section)): >128 µg/mL
- FIC (Tobramycin + peptide, A. baumannii ABI001): 0.31
- FIC (Tobramycin + peptide, A. baumannii ABI002): 0.53
- FIC (Tobramycin + peptide, S. aureus SA018 MRSA): 0.56
- FIC (Tobramycin + peptide, S. haemolyticus SHA001): 0.53
- FIC (Tobramycin + peptide, S. maltophilia SMA027): 0.19
- FIC (Tobramycin + peptide, S. maltophilia SMA029): 0.16
- FIC (Vancomycin + peptide, E. faecalis EFS001): 0.38
- FIC (Vancomycin + peptide, E. faecalis EFS004): 0.50
- FIC (Vancomycin + peptide, E. faecalis EFS011): 0.50
- FIC (Vancomycin + peptide, E. faecalis EFS012): 0.38
- FIC (Vancomycin + peptide, E. faecalis EFS014): 0.16
- FIC (Vancomycin + peptide, E. faecium EFM004): 0.50
- FIC (Vancomycin + peptide, E. faecium EFM009): 0.52
- FIC (Vancomycin + peptide, E. faecium EFM010): 0.28
- FIC (Vancomycin + peptide, E. faecium EFM011): 0.50
- FIC (with Ciprofloxacin, P. aeruginosa PA24): 0.31
- FIC (with Ciprofloxacin, P. aeruginosa PA77): 0.50
- PIC (A. baumannii ABI001): 0.27
- PIC (A. baumannii ABI002): 0.56
- PIC (E. coli ECO006): 0.27
- PIC (E. faecalis EFS008): 0.19
- PIC (E. faecium EFM004): 0.05
- PIC (K. pneumonia KP020): 0.50
- PIC (P. aeruginosa PA022): 0.52
- PIC (P. aeruginosa PA041): 0.14
- PIC (S. aureus SA014 MRSA): 0.13
- PIC (S. aureus SA025 MRSA): 0.14
- PIC (S. epidermidis SE071): 0.27
- PIC (S. epidermidis SE074): 0.09
- PIC (S. maltophilia SMA016): 0.38
- PIC (S. maltophilia SMA019): 0.19
- FIC (with Mupirocin, E. coli SBECO1): 0.36
- FIC (with Mupirocin, E. coli SBECO2): 0.06
- FIC (with Mupirocin, P. aeruginosa PA4): 0.53
- FIC (with Mupirocin, P. aeruginosa SBPA1): 0.35
- FIC (with Mupirocin, S. marcescens SBSM1): 0.16
- FIC (with Mupirocin, S. marcescens SBSM2): 0.35
